# In US9840501B2, “Morpholin-pyridine derivatives” (Hoffmann-La Roche Inc., priority 2014, dated 2017):
# Experiments:
# mouse TAAR1 = mouse TAAR1 (Mus musculus (Mouse), UniProt Q923Y8); assay: Radioligand binding assay on mouse TAAR1; settings: mouse TAAR1, membranes of stably transfected HEK-293 cells; first value of the pair; read-out: Ki (μM) mouse/rat: mouse
# Experimental: (§1) For the construction of expression plasmids the coding sequences of human, rat and mouse TAAR 1 were amplified from genomic DNA essentially as described by Lindemann et al.. The Expand High Fidelity PCR System (Roche Diagnostics) was used with 1.5 mM Mg^2+ and purified PCR products were cloned into pCR2.1-TOPO cloning vector (Invitrogen) following the instructions of the manufacturer. PCR products were subcloned into the pIRESneo2 vector (BD Clontech, Palo Alto, Calif.), and expression vectors were sequence verified before introduction in cell lines.
# (§2) For the generation of stably transfected cell lines HEK293 cells were transfected with the pIRESneo2 expression plasmids containing the TAAR coding sequences (described above) with Lipofectamine 2000 (Invitrogen) according to the instructions of the manufacturer, and 24 hrs post transfection the culture medium was supplemented with 1 mg/ml G418 (Sigma, Buchs, Switzerland). After a culture period of about 10 d clones were isolated, expanded and tested for responsiveness to trace amines (all compounds purchased from Sigma) with the cAMP Biotrak Enzyme immunoassay (EIA) System (Amersham) following the non-acetylation EIA procedure provided by the manufacturer.
# Radioligand Binding Assay on Mouse TAAR1
# (§3) Membrane Preparation and Radioligand Binding.
# (§4) Cells were released from culture flasks using trypsin/EDTA, harvested, washed twice with ice-cold PBS (without Ca^2+ and Mg^2+), pelleted at 1,000 rpm for 5 min at 4° C., frozen and stored at −80° C. Frozen pellets were suspended in 20 ml HEPES-NaOH (20 mM, pH 7.4) containing 10 mM EDTA and homogenized with a Polytron (PT 6000, Kinematica) at 14′000 rpm for 20 s. The homogenate was centrifuged at 48,000×g for 30 min at 4° C. Subsequently, the supernatant was removed and discarded, and the pellet resuspended in 20 ml HEPES-NaOH (20 mM, pH 7.4) containing 0.1 mM EDTA using the Polytron (20 s at 14′000 rpm). This procedure was repeated and the final pellet resuspended in HEPES-NaOH containing 0.1 mM EDTA and homogenized using the Polytron. Typically, aliquots of 2 ml membrane portions were stored at −80° C. With each new membrane batch the dissociation constant (Kd) was determined via a saturation curve. […] Nonspecific binding was defined as the amount of ^3[H]—(S)-4-[(ethyl-phenyl-amino)-methyl]-4,5-dihydro-oxazol-2-ylamine bound in the presence of 10 μM unlabeled ligand. All compounds were tested at a broad range of concentrations (10 pM to 10 μM) in duplicates. […] The 96 deep well plates were incubated for 1 hr at 4° C. Incubations were terminated by rapid filtration through Unifilter-96 plates (Packard Instrument Company) and glass filters GF/C (Perkin Elmer) presoaked for 1 hr in polyethylenimine (0.3%) and washed 3 times with 1 ml of cold binding buffer. After addition of 45 μl of Microscint 40 (PerkinElmer) the Unifilter-96 plate was sealed and after 1 hr the radioactivity counted using a TopCount Microplate Scintillation Counter (Packard Instrument Company).
# rat TAAR1 = rat TAAR1 (Rattus norvegicus (Rat), UniProt Q923Y9); assay: Radioligand binding assay on rat TAAR1; settings: rat TAAR1, membranes of stably transfected HEK-293 cells; second value of the pair; read-out: Ki (μM) mouse/rat: rat
# Sequence of rat TAAR1 (Q923Y9 whole entry): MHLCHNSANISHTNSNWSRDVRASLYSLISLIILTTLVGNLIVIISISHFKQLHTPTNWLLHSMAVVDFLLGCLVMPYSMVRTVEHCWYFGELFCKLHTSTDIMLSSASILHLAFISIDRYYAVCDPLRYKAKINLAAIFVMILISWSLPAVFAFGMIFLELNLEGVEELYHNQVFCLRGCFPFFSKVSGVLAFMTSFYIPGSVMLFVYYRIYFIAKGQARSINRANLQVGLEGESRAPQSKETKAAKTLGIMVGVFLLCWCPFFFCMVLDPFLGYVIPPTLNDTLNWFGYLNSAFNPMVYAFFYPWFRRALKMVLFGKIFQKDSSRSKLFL
# Experimental: as §1, §2
# Radioligand Binding Assay on Rat TAAR1
# as §3
# as §4, with “1′000” for “1,000”, “48′000×g” for “48,000×g”
# Sequence of mouse TAAR1 (Q923Y8 whole entry): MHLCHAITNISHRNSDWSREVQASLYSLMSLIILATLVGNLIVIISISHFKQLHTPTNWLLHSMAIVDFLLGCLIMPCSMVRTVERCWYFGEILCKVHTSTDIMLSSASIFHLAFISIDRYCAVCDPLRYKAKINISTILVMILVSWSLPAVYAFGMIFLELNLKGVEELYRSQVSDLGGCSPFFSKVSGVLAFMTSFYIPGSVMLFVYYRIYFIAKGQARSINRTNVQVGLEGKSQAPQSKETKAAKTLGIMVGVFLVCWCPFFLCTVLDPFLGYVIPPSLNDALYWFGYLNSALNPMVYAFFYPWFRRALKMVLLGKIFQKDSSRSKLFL
Structure (SMILES),Ki (mouse TAAR1),Ki (rat TAAR1)
"O=C(Nc1ccc([C@H]2CNCCO2)nc1)c1ccc(OCC(F)(F)F)nc1 [Example 56, N-[6-[(2R)-Morpholin-2-yl]-3-pyridyl]-6-(2,2,2-trifluoroethoxy)pyridine-3-carboxamide]",0.0075 µM,0.0334 µM
"O=C(Nc1cccc(Cl)c1)Nc1cnc(C2CNCCO2)c(Cl)c1 (racemic) [Example 109, (RS)-1-(5-Chloro-6-morpholin-2-yl-3-pyridyl)-3-(3-chlorophenyl)urea]",0.0543 µM,0.019 µM
"Cc1cc(Nc2ccc(C(F)(F)F)cn2)cnc1C1CNCCO1 (racemic) [Example 104, (RS)-5-Methyl-6-morpholin-2-yl-N-[5-(trifluoromethyl)-2-pyridyl]pyridin-3-amine]",0.0837 µM,0.455 µM
"CCc1n[nH]c(C(=O)Nc2ccc([C@H]3CNCCO3)nc2)c1F [Example 83, 3-Ethyl-4-fluoro-N-[6-[(2R)-morpholin-2-yl]-3-pyridyl]-1H-pyrazole-5-carboxamide]",0.0083 µM,0.757 µM
"FC(F)(F)c1ccc(Nc2ccc([C@H]3CNCCO3)nc2)cn1 [Example 27, 6-[(2R)-Morpholin-2-yl]-N-[6-(trifluoromethyl)-3-pyridyl]pyridin-3-amine]",0.074 µM,1.1 µM
"O=C(Nc1ccc([C@H]2CNCCO2)nc1)c1ccc(C(F)(F)F)cc1 [Example 53, N-[6-[(2R)-Morpholin-2-yl]-3-pyridyl]-4-(trifluoromethyl)benzamide]",0.0061 µM,0.0718 µM
"FC(F)(F)c1nccc(Nc2ccc(C3CNCCO3)nc2)n1 (racemic) [Example 17, (RS)—N-(6-Morpholin-2-yl-3-pyridyl)-2-(trifluoromethyl)pyrimidin-4-amine]",0.0382 µM,0.466 µM
"O=C(Nc1ccc(Cl)cc1)Nc1ccc(C2CNCCO2)nc1 (racemic) [Example 11, (RS)-1-(4-Chlorophenyl)-3-(6-morpholin-2-yl-3-pyridyl)urea]",0.0038 µM,0.0047 µM
"Clc1ccc(Nc2ccc([C@@H]3CNCCO3)nc2)cc1 [Example 18, N-(4-Chlorophenyl)-6-[(2S)-morpholin-2-yl]pyridin-3-amine]",0.0015 µM,0.043 µM
"CC(C)n1nc(OCC(F)(F)F)cc1C(=O)Nc1ccc([C@@H]2CNCCO2)nc1 [Example 93, 2-Isopropyl-N-[6-[(2S)-morpholin-2-yl]-3-pyridyl]-5-(2,2,2-trifluoroethoxy)pyrazole-3-carboxamide]",0.0215 µM,0.0023 µM

# More lines, in order of falling Ki (mouse TAAR1), values ahead:
Ki (mouse TAAR1),Ki (rat TAAR1),Structure (SMILES)
0.0533 µM,0.243 µM,"Cc1cc(NC(=O)Nc2cccc(Cl)c2)cnc1C1CNCCO1 (racemic) [Example 119, (RS)-1-(3-Chlorophenyl)-3-(5-methyl-6-morpholin-2-yl-3-pyridyl)urea]"
0.0186 µM,1.45 µM,"Clc1ccc(Nc2cnc(C3CNCCO3)nc2)cc1 (racemic) [Example 70, (RS)—N-(4-Chlorophenyl)-2-morpholin-2-yl-pyrimidin-5-amine]"
0.0089 µM,0.0428 µM,"O=C(Nc1ccc([C@@H]2CNCCO2)nc1)c1[nH]nc(C2CC2)c1Cl [Example 40, 4-Chloro-3-cyclopropyl-N-[6-[(2S)-morpholin-2-yl]-3-pyridyl]-1H-pyrazole-5-carboxamide]"
0.0084 µM,0.917 µM,"O=C(Nc1ccc(C2CNCCO2)nc1)c1ccc(F)cc1 (racemic) [Example 14, (RS)-4-Fluoro-N-(6-morpholin-2-yl-3-pyridyl)benzamide]"
0.0066 µM,0.0278 µM,"O=C(Nc1ccc([C@@H]2CNCCO2)nc1)c1ccc(OCC(F)(F)F)nc1 [Example 36, N-[6-[(2S)-Morpholin-2-yl]-3-pyridyl]-6-(2,2,2-trifluoroethoxy)pyridine-3-carboxamide]"
0.0048 µM,0.0221 µM,"CCCc1n[nH]c(C(=O)Nc2cnc(C3CNCCO3)c(F)c2)c1Cl (racemic) [Example 114, (RS)-4-Chloro-N-(5-fluoro-6-morpholin-2-yl-3-pyridyl)-3-propyl-1H-pyrazole-5-carboxamide]"
